Results reported in ChEMBL document CHEMBL5303304, “EUbOPEN Chemogenomics Library - IncuCyte” (2023).
Several values for one entry are separate records, joined by “and”; a condition that tells them apart may be missing. Equal values may be shown once.

Key:
Assay type in all cases: toxicity, cell-based
U2OS = assay: Incucyte cell viability with U2OS; details: human, 10 µM, compound concentration 10 uM
HEK-293T = assay: Incucyte cell viability with HEK293T; details: human, 10 µM, compound concentration 10 uM
Fibroblast = assay: Incucyte cell viability with human fibroblast; details: 10 µM, compound concentration 10 uM
Note: unitless GR value; below 1 slowed growth and below 0 cell loss.

Compound	Growth Rate (U2OS; 6 h, replicate number 1)	Growth Rate (U2OS; 12 h, replicate number 1)	Growth Rate (U2OS; 18 h, replicate number 1)	Growth Rate (U2OS; 18 h, replicate number 2)	Growth Rate (U2OS; 24 h, replicate number 1)	Growth Rate (U2OS; 24 h, replicate number 2)	Growth Rate (HEK-293T; 6 h, replicate number 1)	Growth Rate (HEK-293T; 6 h, replicate number 2)	Growth Rate (HEK-293T; 12 h, replicate number 1)	Growth Rate (HEK-293T; 12 h, replicate number 2)	Growth Rate (HEK-293T; 18 h, replicate number 1)	Growth Rate (HEK-293T; 18 h, replicate number 2)	Growth Rate (HEK-293T; 24 h, replicate number 1)	Growth Rate (HEK-293T; 24 h, replicate number 2)	Growth Rate (Fibroblast; 6 h, replicate number 2)	Growth Rate (Fibroblast; 12 h, replicate number 1)	Growth Rate (Fibroblast; 12 h, replicate number 2)	Growth Rate (Fibroblast; 18 h, replicate number 1)	Growth Rate (Fibroblast; 24 h, replicate number 1)	Growth Rate (U2OS; 12 h, replicate number 2)	other results
Cc1cccc(CC(=O)N2CCc3c2ccc(-c2cn(C)c4ncnc(N)c24)c3F)n1	-0.61	0.43	0.31	0.97	0.59	0.71	0.02	0.26	0.24	0.53	0.4	0.55	0.46	0.57	0.98	0.46	0.94	0.46	0.52	–	Growth Rate (Fibroblast; 6 h, replicate number 1): 0.64; Growth Rate (Fibroblast; 18 h, replicate number 2): 0.69; Growth Rate (Fibroblast; 24 h, replicate number 2): 0.58
CC(C)(C)S(=O)(=O)c1ccc2nccc(Nc3n[nH]c4ccc(F)cc34)c2c1	0.95	0.21	0.1	-0.02	0.06	-0.07	-0.03	-0.05	-0.18	-0.13	-0.12	-0.14	-0.13	-0.15	0.54	0.85	0.34	0.67	0.45	0.12	Growth Rate (U2OS; 0 h, replicate number 1): -0.83; Growth Rate (U2OS; 6 h, replicate number 2): 0.2; Growth Rate (Fibroblast; 18 h, replicate number 2): 0.31; Growth Rate (Fibroblast; 24 h, replicate number 2): 0.22
Cc1nc(Nc2cnn(C3CCNCC3)c2)nc2c1N(C)C(=O)c1cc3ccccc3cc1N2C	0.19	-0.83	0.36	0.65	0.58	0.62	0.03	0.26	0.41	0.67	0.48	0.63	0.52	0.7	0.56	-0.05	0.26	-0.22	-0.14	0.83	Growth Rate (U2OS; 6 h, replicate number 2): 0.81; Growth Rate (Fibroblast; 6 h, replicate number 1): -0.01; Growth Rate (Fibroblast; 18 h, replicate number 2): 0.06; Growth Rate (Fibroblast; 24 h, replicate number 2): 0.17
COc1ncc(-c2cc(-c3ncc(CN4C[C@@H](C)O[C@@H](C)C4)o3)c3cn[nH]c3c2)cc1NS(C)(=O)=O	-0.31	0.56	0.72	0.21	0.82	0.36	-0.44	-0.64	-0.15	-0.32	-0.01	-0.2	0.05	-0.11	-0.56	-0.39	-0.16	-0.21	-0.03	0.02	Growth Rate (U2OS; 0 h, replicate number 2): -0.39; Growth Rate (U2OS; 6 h, replicate number 2): -0.02; Growth Rate (Fibroblast; 6 h, replicate number 1): -0.74; Growth Rate (Fibroblast; 18 h, replicate number 2): 0.05; Growth Rate (Fibroblast; 24 h, replicate number 2): 0.3
CNc1nc(Nc2ccc(C(=O)N3CCOCC3)cc2OC)nc2[nH]cc(Cl)c12	–	–	–	–	–	–	0.03	-0.31	0.06	-0.05	0.26	0.08	0.27	0.24	–	–	–	–	–	0.5	Growth Rate (U2OS; 0 h, replicate number 1): -0.99; Growth Rate (Fibroblast; 0 h, replicate number 1): -0.95; Growth Rate (Fibroblast; 0 h, replicate number 2): -0.43
COc1cc2nc(-c3cc(F)ccc3O)nc(N[C@@H]3CNC[C@H]3C(C)(C)O)c2cc1OC.Cl.Cl	–	-0.39 and -0.54	-0.4 and -0.47	-0.37 and -0.32	-0.35 and -0.37	-0.34 and -0.27	-0.41 and -0.9	-0.53	-0.39 and -0.88	-0.5 and -0.73	-0.28 and -0.69	-0.42 and -0.53	-0.23 and -0.61	-0.33 and -0.39	-1	–	–	0.18	0.06	-0.46 and -0.33	Growth Rate (U2OS; 0 h, replicate number 1): -0.66; Growth Rate (Fibroblast; 0 h, replicate number 1): -1; Growth Rate (Fibroblast; 0 h, replicate number 2): 0.21; Growth Rate (Fibroblast; 6 h, replicate number 1): -0.98
Nc1ncnc2[nH]c(-c3ccccc3)nc12	–	–	–	0.95	–	–	0.83	0.23	0.87	0.55	0.8	0.68	0.85	0.78	0.95	0.88	0.9	–	–	0.9	Growth Rate (U2OS; 0 h, replicate number 1): -1; Growth Rate (U2OS; 0 h, replicate number 2): 0.55; Growth Rate (U2OS; 6 h, replicate number 2): 0.92; Growth Rate (Fibroblast; 0 h, replicate number 2): 0.44
